Assay results published in US9550796B2, “Pyrrolopyrrolone derivatives and their use as BET inhibitors” (NOVARTIS AG, priority 2013, dated 2017).

Assays:
THP-1 = assay: Cell growth inhibition assay (CellTiter-Glo), THP-1; assay type: cell-based, human; conditions: THP-1 cells, 4 days; for GI50: Homo sapiens, 96 h, half-maximal growth inhibition; for THP-1 TGI: total growth inhibition
Method: (§1) Cell Growth Inhibition Assay
(§2) The human leukemia cell lines MV-4-11, THP-1 and K-562 were employed to characterize the effect of BET inhibitors on cellular proliferation and viability. Cells were obtained from the American Type Culture Collection (ATCC) and cultured at 37° C. in a humidified 5% CO2 incubator in the following media: MV-4-11: DMEM high glucose (Animed #1-26F01-I), 10% FCS (Animed #2-01F26-I), 4 mM L-Glutamine (Animed #5-10K50), 1 mM Sodium Pyruvate (Animed # G03625P), 1× Penicillin-Streptomycin (Animed # F12478P); K-562: Iscove's MEM (Animed #1-28F16-I), 10% FCS (Animed #2-01F26-I), 4 mM L-Glutamine (Animed #5-10K50), 1× Penicillin-Streptomycin (Animed # F12478P); THP-1: RPMI-1640 (Animed #1-41F01-I), 10% FCS (Animed #2-01F26-I), 2 mM L-Glutamine (Animed #5-10K50), 10 mM HEPES (Animed #5-31F100), 1 mM Sodium Pyruvate (Animed # G03625P), 1× Penicillin-Streptomycin (Animed # F12478P). The AML lines MV-4-11 and THP-1 are very sensitive to BET inhibitors and show massive cell death upon BET inhibition (Zuber et al., Nature, 478 (2011), 524-8). Compound-mediated suppression of cell proliferation/viability was assessed by quantification of cellular ATP levels using the CellTiter-Glo (CTG) reagent (Promega). Briefly, cells were seeded in 20 μl fresh medium into 384-well plates, followed by addition of 5 μL medium containing compound dilutions at 5-fold their final intended concentration. Dose-response effects were assessed by 3-fold serial dilutions of the test compound, starting at 10 μM. Following incubation of the cells for 4 days at 37° C. and 5% CO2, the effect of inhibitors on cell viability was quantified following addition of 20 μl CTG and luminescence quantification (integration time: 100 ms) as per vendor manual, using a correspondingly equipped Tecan M200 multi-mode platereader (TECAN, Switzerland). For data analysis, the assay background value determined in wells containing medium, but no cells, was subtracted from all data points. To enable differentiation of cytotoxic from cytostatic compounds, the number of viable cells is assessed relative to that observed at the time of compound addition using a separate cell plate (day 0). The effect of a particular test compound concentration on cell proliferation/viability is expressed as percentage of the background- and day 0-corrected luminescence reading obtained for cells treated with vehicle only (DMSO, 0.1% final concentration), which is set as 100%, whereas that luminescence reading for wells containing medium is set as −100%. Compound concentrations leading to half-maximal (IC50) and total growth inhibition (TGI) were determined using standard four parameter curve fitting.

BRD3 = BRD3 (Homo sapiens (Human), UniProt Q15059); assay: TR-FRET in-vitro binding assay for BRD3; conditions: 45 nM His-Brd3(20-477), acetyl-histone H4 (AcK 5, 8, 12, 16) peptide
Method: (§3) TR-FRET In-Vitro Binding Assays for BRD2, BRD3, and BRD4: All assays were performed in 384-well microtiter plates. […] Liquid handling and incubation steps were done on an Innovadyne Nanodrop Express equipped with a robotic arm (Thermo CatX, Perkin Elmer/Caliper Twister II) and an incubator (Liconic STX40, Thermo Cytomat 2C450). The assay plates were prepared by addition of 50 nl per well of compound solution in 90% DMSO HummingBird nanodispenser (Zinsser Analytic). […] Reactions were incubated at 30° C. for 35 minutes. […] After 35 minutes incubation at 30° C., plates were measured in a Perkin Elmer EnVision multilabel reader. […] The stock solutions were stored at […] if not used immediately. For the test procedure the vials were defrosted and identified by a scanner whereby a working sheet was generated that guided the subsequent working steps. Compound dilutions were made in 96 well plates. This format enabled the assay of maximally […] at 8 concentrations (single points) including 4 reference compounds, if desired (known BET inhibitors from the prior art, for this and other assays of the type disclosed herein). The dilution protocol included the production of “pre-dilution plates”, “master plates” and “assay plates”. Polypropylene 96-well plates were used as pre-dilution plates. […] All dilution steps were done on a HamiltonSTAR robot. […] Identical “assay plates” were then prepared by pipetting 50 nL each of compound dilutions of the “master plates” into 384-well “assay plates” by means of a HummingBird 384-channel dispenser. These plates were used directly for the assay which was performed in a total volume of 13.55 μL.

BRD4 = BRD4 (Homo sapiens (Human), UniProt O60885); assay: TR-FRET in-vitro binding assay for BRD4; conditions: 45 nM His-Brd4(44-477), acetyl-histone H4 (AcK 5, 8, 12, 16) peptide
Method: as §3

CREBBP = CREBBP (Homo sapiens (Human), UniProt Q92793); assay: AlphaScreen in-vitro binding assay for CREBBP; conditions: 324 nM His-CREBBP (1081-1197), acetyl-histone H4 (AcK 5, 8, 12) peptide
Method: AlphaScreen In-Vitro Binding Assay for CREBBP
In order to assess bromodomain selectivity, we set up a binding assay using the bromodomain encoded by the CREBBP gene. […] The assay was started by stepwise addition of 4.5 μL per well of bromo domain protein (50 mM HEPES, pH 7.5, 0.005% Tween20, 0.02% BSA, 150 mM NaCl, 324 nM His-CREBBP (1081-1197) (custom production at Viva Biotech Ltd.)) and 4.5 μL per well of peptide solution (50 mM HEPES, pH 7.5, 0.005% Tween20, 0.02% BSA, 150 mM NaCl, 120 nM acetyl-histone H4 (AcK 5, 8, 12) (Biosyntan GmbH)). Reactions were incubated at 30° C. for 35 minutes. Subsequently 4.5 μL per well detection mix (50 mM HEPES, pH 7.5, 0.005% Tween20, 0.02% BSA, 150 mM NaCl, 45 μg/ml Ni-chelate acceptor beads, 45 μg/mL streptavidin-donor beads) (Perkin Elmer)) were added. After 60 minutes incubation at room temperature, plates were measured in a Perkin Elmer EnVision multilabel reader. IC50 values were determined from percent inhibition values at different compound concentrations by non-linear regression analysis.
Test compounds were dissolved in DMSO (10 mM) and transferred into 1.4 mL flat bottom or V-shaped Matrix tubes carrying a unique 2D matrix. The stock solutions were stored at […] if not used immediately. For the test procedure the vials were defrosted and identified by a scanner whereby a working sheet was generated that guided the subsequent working steps. Compound dilutions were made in 96 well plates. This format enabled the assay of maximally […] at 8 concentrations (single points) including 4 reference compounds, if desired (known BET inhibitors from the prior art, for this and other assays of the type disclosed herein). The dilution protocol included the production of “pre-dilution plates”, “master plates” and “assay plates”.
Polypropylene 96-well plates were used as pre-dilution plates. A total of 4 pre-dilution plates were prepared including 10 test compounds each on the plate positions A1-A10, one standard compound at A11 and one DMSO control at […]. All dilution steps were done on a HamiltonSTAR robot.
30 μL of individual compound dilutions including standard compound and controls of the 4 “pre-dilution plates” were transferred into a 384-well “master plate” including the following concentrations 10000, […], 1000, 300, 100, 30, 10 and 3 μM, respectively in 90% of DMSO.
Identical “assay plates” were then prepared by pipetting 50 nL each of compound dilutions of the “master plates” into 384-well “assay plates” by means of a HummingBird 384-channel dispenser. These plates were used directly for the assay which was performed in a total volume of 13.55 μL.

MV-4-11 = assay: Cell growth inhibition assay (CellTiter-Glo), MV-4-11; assay type: cell-based, human; conditions: MV-4-11 cells, 4 days; for GI50: Homo sapiens, MV4-11, 96 h, half-maximal growth inhibition; for MV-4-11 TGI: total growth inhibition
Method: as §1, §2

K-562 = assay: Cell growth inhibition assay (CellTiter-Glo), K-562; assay type: cell-based, human; conditions: K-562 cells, 4 days; for GI50: Homo sapiens, K562, 96 h, half-maximal growth inhibition; for K-562 TGI: total growth inhibition
Method: as §1, §2

BRD3, sequence (Q15059 20-477): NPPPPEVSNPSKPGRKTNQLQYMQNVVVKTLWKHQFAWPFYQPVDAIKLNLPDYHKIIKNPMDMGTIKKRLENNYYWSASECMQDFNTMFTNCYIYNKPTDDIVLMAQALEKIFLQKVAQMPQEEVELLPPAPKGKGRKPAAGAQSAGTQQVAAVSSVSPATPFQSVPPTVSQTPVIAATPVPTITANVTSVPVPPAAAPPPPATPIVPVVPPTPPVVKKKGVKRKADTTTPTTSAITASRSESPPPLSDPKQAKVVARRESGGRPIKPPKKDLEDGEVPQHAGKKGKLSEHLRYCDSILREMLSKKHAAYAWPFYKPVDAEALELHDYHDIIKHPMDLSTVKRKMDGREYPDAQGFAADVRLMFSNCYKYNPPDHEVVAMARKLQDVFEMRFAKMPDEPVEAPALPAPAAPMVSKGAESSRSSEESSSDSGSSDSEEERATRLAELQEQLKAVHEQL
CREBBP, sequence (Q92793 1081-1197): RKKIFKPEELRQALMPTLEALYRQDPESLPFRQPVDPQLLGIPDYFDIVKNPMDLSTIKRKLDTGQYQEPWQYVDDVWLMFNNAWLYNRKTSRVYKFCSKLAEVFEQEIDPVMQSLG

## COc1ncccc1-c1cc2c(n1C)C(c1ccc(Cl)cc1)N(c1cc(C)c3nnc(C)n3c1)C2=O (stereo in doubt) [Example 135, (R)-6-(4-chlorophenyl)-5-(3,8-dimethyl-[1,2,4]triazolo[4,3-a]pyridin-6-yl)-2-(2-methoxypyridin-3-yl)-1-methyl-5,6-dihydropyrrolo[3,4-b]pyrrol-4(1H)-one]
THP-1
  GI50: 6.4 nM
  THP-1 TGI: 14.95 nM
BRD3
  IC50: 21 nM
BRD4
  IC50: 14 nM
CREBBP
  IC50: 470 nM
MV-4-11
  GI50: 6.08 nM
  MV-4-11 TGI: 12.44 nM
K-562
  GI50: 21.4 nM
  K-562 TGI: >10000 nM

## Cc1cc(N2C(=O)c3cc(C4=CCOCC4)n(C)c3C2c2ccc(Cl)cc2)cn2c(C)nnc12 (stereo in doubt) [Example 137, (R)-6-(4-chlorophenyl)-2-(3,6-dihydro-2H-pyran-4-yl)-5-(3,8-dimethyl-[1,2,4]triazolo[4,3-a]pyridin-6-yl)-1-methyl-5,6-dihydropyrrolo[3,4-b]pyrrol-4(1H)-one]
THP-1
  GI50: 11.1 nM
  THP-1 TGI: 22.75 nM
BRD3
  IC50: 13 nM
BRD4
  IC50: < 11 nM
CREBBP
  IC50: 590 nM
MV-4-11
  GI50: 10 nM
  MV-4-11 TGI: 18.75 nM
K-562
  GI50: 31.1 nM
  K-562 TGI: >10000 nM

## Cc1cc(N2C(=O)c3c(C4CC4)cn(C4COC4)c3C2c2ccc(Cl)cc2)cn2c(C)nnc12 (centres unmarked) [Example 18, 6-(4-chlorophenyl)-3-cyclopropyl-5-(3,8-dimethyl-[1,2,4]triazolo[4,3-a]pyridin-6-yl)-1-(oxetan-3-yl)-5,6-dihydropyrrolo[3,4-b]pyrrol-4(1H)-one]
THP-1
  GI50: 4.63 nM
  THP-1 TGI: 13.35 nM
BRD4
  IC50: 12 nM
MV-4-11
  GI50: 2.86 nM
  MV-4-11 TGI: 8.13 nM
K-562
  GI50: 16.4 nM
  K-562 TGI: >10000 nM

## Cc1cc(N2C(=O)c3c(C4CC4)cn(C)c3C2c2ccc(Cl)cc2)cn2c(C)nnc12 (centres unmarked) [Example 35, 6-(4-chlorophenyl)-3-cyclopropyl-5-(3,8-dimethyl-[1,2,4]triazolo[4,3-a]pyridin-6-yl)-1-methyl-5,6-dihydropyrrolo[3,4-b]pyrrol-4(1H)-one]
THP-1
  GI50: 8.94 nM
  THP-1 TGI: 17.85 nM
BRD3
  IC50: 15 nM
CREBBP
  IC50: 6100 nM
MV-4-11
  GI50: 4.08 nM
  MV-4-11 TGI: 8.67 nM
K-562
  GI50: 45.9 nM
  K-562 TGI: >10000 nM

## Cc1cc(N2C(=O)c3c(C4CC4)cn(C)c3[C@H]2c2ccc(Cl)cc2)cn2c(C)nnc12 [Example 36, (R)-6-(4-chlorophenyl)-3-cyclopropyl-5-(3,8-dimethyl-[1,2,4]triazolo[4,3-a]pyridin-6-yl)-1-methyl-5,6-dihydropyrrolo[3,4-b]pyrrol-4(1H)-one]
THP-1
  GI50: 3.36 nM
  THP-1 TGI: 10.91 nM
BRD3
  IC50: 15 nM
CREBBP
  IC50: 4100 nM
MV-4-11
  GI50: 2.15 nM
  MV-4-11 TGI: 6.22 nM
K-562
  GI50: 17.9 nM
  K-562 TGI: >10000 nM

## Cc1cc2c(n1C)C(c1ccc(Cl)cc1)N(c1cc(Cl)c(=O)n(C)c1)C2=O (centres unmarked) [Example 74, 5-(5-chloro-1-methyl-6-oxo-1,6-dihydropyridin-3-yl)-6-(4-chlorophenyl)-1,2-dimethyl-5,6-dihydropyrrolo[3,4-b]pyrrol-4(1H)-one]
THP-1
  GI50: 92.7 nM
  THP-1 TGI: 171.5 nM
BRD4
  IC50: 23 nM
MV-4-11
  GI50: 90.1 nM
  MV-4-11 TGI: 142 nM
K-562
  GI50: 273 nM
  K-562 TGI: >10000 nM

## Cn1ccc2c1C(c1ccc(Cl)cc1)N(c1cc(Cl)c(=O)n(C)c1)C2=O (centres unmarked) [Example 76, 5-(5-chloro-1-methyl-6-oxo-1,6-dihydropyridin-3-yl)-6-(4-chlorophenyl)-1-methyl-5,6-dihydropyrrolo[3,4-b]pyrrol-4(1H)-one]
THP-1
  GI50: 118 nM
  THP-1 TGI: 238 nM
BRD4
  IC50: 37 nM
MV-4-11
  GI50: 108 nM
  MV-4-11 TGI: 178 nM
K-562
  GI50: 368 nM
  K-562 TGI: >10000 nM

## CC(=O)Nc1cn(C)c2c1C(=O)N(c1cc(C)c3nnc(C)n3c1)[C@@H]2c1ccc(Cl)cc1 [Example 136, (R)—N-(6-(4-chlorophenyl)-5-(3,8-dimethyl-[1,2,4]triazolo[4,3-a]pyridin-6-yl)-1-methyl-4-oxo-1,4,5,6-tetrahydropyrrolo[3,4-b]pyrrol-3-yl)acetamide]
THP-1
  GI50: 33.7 nM
  THP-1 TGI: 79.2 nM
CREBBP
  IC50: 1400 nM
MV-4-11
  GI50: 19.8 nM
  MV-4-11 TGI: 39.5 nM
K-562
  GI50: 119 nM
  K-562 TGI: >10000 nM
